Measurements published in patent US20250263496A1, “Neutrophil-Activating Therapy for the Treatment of Cancer” (The Board of Trustees of the Leland Stanford Junior …, priority 2024, published 2025).

Assays:
B16 tumors = assay: TUNEL staining of cell death in B16 tumors; assay type: in vivo, mouse; settings: agent given prior to neutrophil-activating therapy
Description: Tumors were dissected away from surrounding fat, fixed in 2% paraformaldehyde for 2 hours at 4° C., equilibrated in a 30% sucrose solution at 4° C., and embedded and frozen in O.C.T. Compound (Tissue-Tek). Slides were cut to […] and blocked with 1% BSA and 10% serum matched to the secondary antibody species. The following antibodies were used for immunofluorescence: PE anti-Ly6G (clone 1A8, BioLegend), DyLight 650 anti-gp75 (clone TA99, Bio X Cell, labeled using DyLight 650 NHS Ester (Thermo Scientific)), fluorescein anti-gp75 (clone TA99, Bio X Cell, labeled using NHS-Fluorescein (Thermo Scientific)), FITC anti-DNA/RNA damage (clone 15A3, recognizing 8-hydroxy-2′-deoxyguanosine/8-oxo-7,8-dihydroguanine/8-oxo-7,8-dihydroguanosine, Abcam), and AF647 anti-C3 (clone 11H9, Novus Biologicals). DAPI (Invitrogen) was stained at 1 μg/ml. FITC/fluorescein signal was amplified using AF488 anti-FITC (ThermoFisher Scientific), and PE was amplified using biotin anti-PE (clone PE001, BioLegend) followed by DyLight 594 streptavidin (BioLegend) or DyLight 649 streptavidin (BioLegend). Prior to use of biotinylated antibodies, endogenous biotin was blocked using the Avidin/Biotin Blocking Kit (Vector Laboratories). Prior to DNA/RNA damage staining, sections were permeabilized with 0.1% Triton X-100 in 0.1% sodium citrate. TUNEL (Terminal deoxynucleotidyl transferase dUTP nick end labeling) staining was performed using the In Situ Cell Death Detection Kit, TMR Red (Roche) according to the manufacturer's instructions. […] All parameters that were quantified were acquired with identical microscope settings and adjusted identically in Photoshop, and all adjustments were applied equally across the entire tumor. Quantification was performed in ImageJ, using the wand tool on the overlaid multichannel image to draw a border around the tumor and then measuring the percent area within that border with signal for the channel of the marker quantified.

LTB4 = LTB4 ELISA of B16 tumors; assay type: in vivo, mouse; settings: agent given prior to neutrophil-activating therapy
Description: LTB4 ELISA. Tumors were dissected away from surrounding fat 24 hours post-treatment and lysed in PBS using 3 mm zirconium beads (Benchmark Scientific) in the BeadBug Microtube Homogenizer (Benchmark Scientific) for 2 cycles of 45 seconds at 3000 rpm. Crude lysate was centrifuged for 15 minutes at 16000×g at 4° C. to obtain clarified lysate. Clarified lysate was deproteinized by ethanol precipitation by adding 4 volumes of 100% ethanol, incubating on ice for 5 minutes, and centrifuging for 10 minutes at 3000×g at 4° C. Deproteinized supernatant was transferred to a new tube, ethanol was removed by evaporation at room temperature, and samples were brought to the appropriate volume in ELISA assay buffer. LTB4 content was determined with the Leukotriene B4 ELISA kit (Cayman Chemical 520111) according to the manufacturer's instructions and read with a Victor X4 fluorescence microplate reader (PerkinElmer).
Ex vivo neutrophil LTB4 assay. B16 tumors were harvested from mice 12 hours after treatment with TNF+anti-CD40+anti-gp75 and digested with collagenase IV and DNase I as described above. […] Following the incubation, the supernatant was collected, centrifuged to remove cells and debris, and analyzed for LTB4 using the Leukotriene B4 ELISA kit (Cayman Chemical 520111) as described above.

## N#Cc1cc(-c2n[nH]c(-c3ccncc3)n2)ccn1 [topiroxostat]
B16 tumors
  effect of agent on treatment-induced tumor cell death: reduced cell death
LTB4
  effect of agent on LTB4 production: did not prevent
